Test results published in patent US20140255527A1, “Expression Promoting Agent For Clock Gene And Hyaluronic Acid Synthase Gene” (SHISEIDO COMPANY, LTD., priority 2011, published 2014).

Assays:
Format in all cases: cell-based
Conditions in all cases: medical agent for stimulation in cultured human dermal fibroblast system; no data shown
[1] = tested on: HAS2 hyaluronic acid synthase gene; assay: Expression amount of HAS2 hyaluronic acid synthase gene in cultured human dermal fibroblast (RT-PCR, relative to RPLP0)
Experimental: (§1) Moreover, as the clock gene, an amount of expression of a Bmal gene (typified by Bmal1) or a Period gene (typified by Period1) in connection with the core system was measured. As a hyaluronic acid synthase gene, an amount of expression of hyaluronic acid synthase gene 2 (HAS2) was measured. […] In experiments described below, a gene expression amount after 16 hours or 2 hours from the stimulation was used as an index, respectively, and an effect on promotion of expression of the Bmal gene, the Period gene and the HAS2 gene being a test substance was evaluated.
(§2) As a cultured human dermal fibroblast, a commercially available normal human dermal fibroblast derived from adult skin (Cell Application, Inc) was purchased, and used for an experiment. Seeding was made in a DMEM culture medium prepared by adding 10% FBS, 20 mM HEPES, Glutamax and an antibacterial agent, and culture was made at 37° C. under 5% CO2. […] From the cell taken therefrom, RNA was extracted using a commercially available RNA extraction kit, and an expression amount of a clock gene (Period1, Bmal1) and a hyaluronic acid synthase gene (HAS2) was measured using a commercially available PCR primer (Perfect Real Time Primer, TAKARA BIO INC.) according to an RT-PCR method. […]

[2] = tested on: Period1 clock gene; assay: Expression amount of Period1 clock gene in cultured human dermal fibroblast (RT-PCR, relative to RPLP0)
Experimental: as §1, §2

[3] = tested on: Bmal1 clock gene; assay: Expression amount of Bmal1 clock gene in cultured human dermal fibroblast (RT-PCR, relative to RPLP0)
Experimental: as §1, §2

| Compound | time of peaked expression amount of HAS2 after stimulation (circadian rhythm) [1] | time of peaked expression amount of Period1 after stimulation (circadian rhythm) [2] [h] | time of peaked expression amount of Bmal1 after stimulation (circadian rhythm) [3] |
| --- | --- | --- | --- |
| C[C@]12CCC(=O)C=C1CC[C@@H]1[C@@H]2[C@@H](O)C[C@@]2(C)[C@H]1CC[C@]2(O)C(=O)CO [cortisol] | approximately 16 hours | 2 | approximately 16 hours |
| C=C[C@@]1(C)CC(=O)[C@]2(O)[C@@]3(C)[C@@H](O)CCC(C)(C)[C@@H]3[C@H](O)[C@H](OC(C)=O)[C@@]2(C)O1 [forskolin] | approximately 16 hours | 2 | approximately 16 hours |
